Assay results from patent publication US6239126A, “Arylpiperidine and aryl-1,2,5,6-tetra-hydropyridine urea derivatives” (American Home Products Corporation, priority 1999, dated 2001).
Read-outs that look alike come from different tables or passages of the source.

Columns and labels:
human 5HT1A receptor [1] = biological target: T1, human 5HT1A receptor (Homo sapiens, UniProt P08908); experiment: 5-HT1A Receptor Intrinsic Activity Assay, ability to reverse agonist induced activity (cAMP, CHO cells stably transfected with the human 5-HT1A receptor); assay type: cell-based; conditions: reversal of agonist induced activity; 6 concentrations of antagonist preincubated 20 minutes prior to agonist and forskolin
T1 construct: expressed in transfected cells; host or cells: CHO cells, stably transfected
T1 sequence (P08908 1-422): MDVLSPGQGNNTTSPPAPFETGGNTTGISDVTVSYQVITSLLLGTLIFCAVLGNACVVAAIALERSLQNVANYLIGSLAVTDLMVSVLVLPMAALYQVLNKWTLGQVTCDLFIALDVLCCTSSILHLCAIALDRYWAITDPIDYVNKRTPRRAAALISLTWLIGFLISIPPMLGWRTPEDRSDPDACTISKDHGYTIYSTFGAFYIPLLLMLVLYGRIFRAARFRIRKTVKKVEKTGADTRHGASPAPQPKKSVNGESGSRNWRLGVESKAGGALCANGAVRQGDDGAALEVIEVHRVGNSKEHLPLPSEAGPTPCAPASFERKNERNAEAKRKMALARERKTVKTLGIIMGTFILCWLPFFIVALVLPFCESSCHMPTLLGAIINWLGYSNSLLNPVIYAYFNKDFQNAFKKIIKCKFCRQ
Description: (§1) The intrinsic activity of compounds of the present invention was established by testing the claimed compounds ability to reverse the stimulation of cyclic adenosinemonophosphate (cAMP) in CHO cells stably transfected with the human 5-HT1A receptor.
Stably transfected CHO cells were grown in DMEM containing 10% heat inactivated FBS and non-essential amino acids. The cells are plated at a density of […] cells per well in a 24 well plate and incubated for 2 days in a CO2 incubator. On the second day, the media is replaced with 0.5 mL treatment buffer (DMEM +25 mM HEPES, 5 mM theophylline, 10 μM pargyline) and incubated for 10 minutes at 37° C. Wells are treated with forskolin (1 μM final concentration) followed immediately by the test compound (0.1 and 1 μM for initial screen) and incubated for an additional 10 minutes at 37° C. The reaction is terminated by removal of the media and addition of 0.5 mL ice cold assay buffer (supplied in the RIA kit). Plates are stored at -20° C. prior to assessment of cAMP formation by RIA. EC50 values are determined for the active test compounds. Compounds shown to have no agonist activities (Emax=0%) are further analyzed for their ability to reverse agonist induced activity. In separate experiments, 6 concentrations of antagonist are preincubated for 20 minutes prior to the addition of agonist and forskolin. Cells are harvested as described above. […]

human 5HT1A receptor [2] = biological target: T1, human 5HT1A receptor; experiment: 5-HT1A Receptor Binding Assay (displacement of [^3 H] 8-OH-DPAT binding in CHO cells stably transfected with human 5HT1A receptor)
Description: High affinity for the serotonin 5-HT1A receptor was established by testing a compound's ability to displace [^3 H] 8-OH-DPAT binding in CHO cells stably transfected with human 5HT1A receptor. Stably transfected CHO cells are grown in DMEM containing 10% heat inactivated FBS and non-essential amino acids. Cells are scraped off the plate, transferred to centrifuge tubes, and washed twice by centrifugation (2000 rpm for 10 min., 4° C.) in buffer (50 mM Tris pH 7.5). The resulting pellets are aliquoted and placed at -80° C. On the day of assay, the cells are thawed on ice and resuspended in buffer. The binding assay is performed in a 96 well microtiter plate in a total volume of 250 μL. Non-specific binding is determined in the presence of […] 5-HT, final ligand concentration is 1.5 nM. Following a 30 minute incubation at room temperature, the reaction is terminated by the addition of ice cold buffer and rapid filtration through a GF/B filter presoaked for 30 minutes in 0.5% PEI. Compounds are initially tested in a single point assay to determine percent inhibition at […], and Ki values are determined for the active compounds.

human 5HT1A receptor [3] = biological target: T1, human 5HT1A receptor; experiment: 5-HT1A Receptor Intrinsic Activity Assay, agonist activity (cAMP in forskolin-treated CHO cells stably transfected with the human 5-HT1A receptor); assay type: cell-based; conditions: read-out: cAMP Emax
Description: as §1
Stably transfected CHO cells were grown in DMEM containing 10% heat inactivated FBS and non-essential amino acids. The cells are plated at a density of […] cells per well in a 24 well plate and incubated for 2 days in a CO2 incubator. On the second day, the media is replaced with 0.5 mL treatment buffer (DMEM +25 mM HEPES, 5 mM theophylline, 10 μM pargyline) and incubated for 10 minutes at 37° C. Wells are treated with forskolin (1 μM final concentration) followed immediately by the test compound (0.1 and 1 μM for initial screen) and incubated for an additional 10 minutes at 37° C. The reaction is terminated by removal of the media and addition of 0.5 mL ice cold assay buffer (supplied in the RIA kit). Plates are stored at -20° C. prior to assessment of cAMP formation by RIA. EC50 values are determined for the active test compounds. Compounds shown to have no agonist activities (Emax=0%) are further analyzed for their ability to reverse agonist induced activity. In separate experiments, 6 concentrations of antagonist are preincubated for 20 minutes prior to the addition of agonist and forskolin. Cells are harvested as described above. The cAMP kit is supplied by Amershan and the RIA is performed as per kit instructions, and calculations of IC50 performed by GraphPad Prism.

[4] = [^3 H] 8-OH-DPAT 1.5 nM, CHO cells, 30 minute incubation at room temperature, read-out: 5-HT1A binding Ki
[5] = agonist activity, forskolin 1 μM, CHO cells, 10 minutes at 37° C.

SMILES	IC50 (human 5HT1A receptor [1]) [nM]	Ki (human 5HT1A receptor [2]; [4]) [nM]	Emax (human 5HT1A receptor [3]; [5]) [%]	Ki (human 5HT1A receptor [2]) [nM]	Emax (human 5HT1A receptor [3]; CHO) [%]
COc1ccc(F)cc1C1CCN(C[C@@H](Cc2ccccc2)N(C)C(=O)NC2CCCCC2)CC1 [Example 1, 1-{(1R)-1-Benzyl-2-[4-(5-fluoro-2-methoxyphenyl)-piperidin-1-yl]-ethly}-1-3-cyclohexyl-1-methyl-urea]	46.9	3.5	0		
COc1ccc(F)cc1C1=CCN(C[C@@H](Cc2ccccc2)N(C)C(=O)NC2CCCCC2)CC1 [Example 3, 1-{(1R)-1-Benzyl-2-[4-(5-fluoro-2-methoxy-phenyl)-1,2,5,6-tetrahydro-4H-pyridin-1-yl]-ethyl-}-3-cyclohexyl-1-methyl-urea]	12.6	3.5	0		
COc1ccc(F)cc1C1=CCN(C[C@@H](Cc2ccccc2)N(C)C(=O)N2CCOCC2)CC1 [Example 2, Morpholine-4-carboxylic acid {(1R)-1-benzyl-2-[4-(5-fluoro-2-methoxy-phenyl)-1,2,5,6-tetrahydro-4H-pyridin-1-yl]-ethyl}-methyl-amide]				26.6	0
